Values after ≈ are worked out from the molar mass of the structure shown. Active and inactive are the calls of the source. No cut-off for these calls is given here.
Test system: P388
Test: Cytotoxicity against mouse P388 cells
Format: functional, cell-based

CC[C@@]1(C)CCC[C@]2(C)[C@H]3C[C@H](O)[C@]4(C)C5=C(CC[C@H]4[C@]3(C)CC[C@@H]12)[C@H](C)OC5=O
Activity: inactive

CC[C@@]1(C)CCC[C@]2(C)[C@H]3C[C@H](O)[C@]4(C)[C@H]5C=CC(=O)C5=CC[C@H]4[C@]3(C)CC[C@@H]12 [PHYLLOFENONE B]
IC50: 5 µg/mL (≈ 12.6 µM)

CC[C@@]1(C)CCC[C@]2(C)[C@H]3CC(=O)[C@]4(C)[C@H]5C(=O)O[C@@H](C)[C@@H]5[C@@H](O)C[C@H]4[C@]3(C)CC[C@@H]12
Activity: inactive
